{"source": "ChEMBL document CHEMBL1649285", "about": "“In vivo efficacy of 1- and 2-gram human simulated prolonged infusions of doripenem against Pseudomonas aeruginosa” (Antimicrob Agents Chemother, 2009)", "key": {"[1]": {"tested_on": "Mus musculus", "experiment": "fAUC in ICR mouse at 1 g, sc administered 2 hrs post infection every 8 hrs", "type": "ADME, organism-based", "details": "in vivo"}, "[2]": {"tested_on": "Homo sapiens", "experiment": "fAUC in human at 2 g, iv administered as 4 hrs infusion every 8 hrs", "type": "ADME, organism-based", "details": "in vivo"}, "[3]": {"experiment": "fT>MIC in Pseudomonas aeruginosa selected at 4 ug/ml MIC infected human at 2 g, iv administered as 4 hrs infusion every 8 hrs", "type": "functional"}, "[4]": {"experiment": "fT>MIC in Pseudomonas aeruginosa selected at 2 ug/ml MIC infected ICR mouse at 1 g, sc administered 2 hrs post infection every 8 hrs", "type": "functional"}, "[5]": {"tested_on": "Pseudomonas aeruginosa", "experiment": "Antimicrobial activity against Pseudomonas aeruginosa isolate 1080 by broth microdilution method", "type": "functional"}, "[6]": {"tested_on": "Mus musculus", "experiment": "fAUC in ICR mouse at 2 g, sc administered 2 hrs post infection every 8 hrs", "type": "ADME, organism-based", "details": "in vivo"}, "[7]": {"experiment": "fT>MIC in Pseudomonas aeruginosa selected at 2 ug/ml MIC infected ICR mouse at 2 g, sc administered 2 hrs post infection every 8 hrs", "type": "functional"}, "[8]": {"tested_on": "Pseudomonas aeruginosa", "experiment": "Antimicrobial activity against Pseudomonas aeruginosa isolate 1036 by broth microdilution method", "type": "functional"}, "[9]": {"tested_on": "Pseudomonas aeruginosa", "experiment": "Antimicrobial activity against Pseudomonas aeruginosa isolate 988 by broth microdilution method", "type": "functional"}, "[10]": {"tested_on": "Homo sapiens", "experiment": "fCmax in human at 1 g, iv administered as 4 hrs infusion every 8 hrs", "type": "ADME, organism-based", "details": "in vivo"}, "[11]": {"experiment": "fT>MIC in Pseudomonas aeruginosa selected at 8 ug/ml MIC infected human at 2 g, iv administered as 4 hrs infusion every 8 hrs", "type": "functional"}, "[12]": {"tested_on": "Homo sapiens", "experiment": "fAUC in human at 1 g, iv administered as 4 hrs infusion every 8 hrs", "type": "ADME, organism-based", "details": "in vivo"}, "[13]": {"experiment": "fT>MIC in Pseudomonas aeruginosa selected at 32 ug/ml MIC infected human at 1 g, iv administered as 4 hrs infusion every 8 hrs", "type": "functional"}, "[14]": {"tested_on": "Pseudomonas aeruginosa", "experiment": "Antimicrobial activity against Pseudomonas aeruginosa isolate 1006 by broth microdilution method", "type": "functional"}, "[15]": {"tested_on": "Pseudomonas aeruginosa", "experiment": "Antimicrobial activity against Pseudomonas aeruginosa isolate 927 by broth microdilution method", "type": "functional"}, "[16]": {"tested_on": "Pseudomonas aeruginosa", "experiment": "Antimicrobial activity against Pseudomonas aeruginosa isolate 1050 by broth microdilution method", "type": "functional"}, "[17]": {"experiment": "fT>MIC in Pseudomonas aeruginosa selected at 16 ug/ml MIC infected human at 1 g, iv administered as 4 hrs infusion every 8 hrs", "type": "functional"}, "[18]": {"experiment": "fT>MIC in Pseudomonas aeruginosa selected at 8 ug/ml MIC infected ICR mouse at 1 g, sc administered 2 hrs post infection every 8 hrs", "type": "functional"}, "[19]": {"tested_on": "Pseudomonas aeruginosa", "experiment": "Antimicrobial activity against Pseudomonas aeruginosa isolate 913 by broth microdilution method", "type": "functional"}, "[20]": {"experiment": "fT>MIC in Pseudomonas aeruginosa selected at 32 ug/ml MIC infected human at 2 g, iv administered as 4 hrs infusion every 8 hrs", "type": "functional"}, "[21]": {"tested_on": "Pseudomonas aeruginosa", "experiment": "Antimicrobial activity against Pseudomonas aeruginosa isolate 22 by broth microdilution method", "type": "functional"}, "[22]": {"tested_on": "Pseudomonas aeruginosa", "experiment": "Antimicrobial activity against Pseudomonas aeruginosa isolate 971 by broth microdilution method", "type": "functional"}, "[23]": {"tested_on": "Pseudomonas aeruginosa", "experiment": "Antimicrobial activity against Pseudomonas aeruginosa isolate 856 by broth microdilution method", "type": "functional"}, "[24]": {"experiment": "fT>MIC in Pseudomonas aeruginosa selected at 2 ug/ml MIC infected human at 1 g, iv administered as 4 hrs infusion every 8 hrs", "type": "functional"}, "[25]": {"experiment": "fT>MIC in Pseudomonas aeruginosa selected at 32 ug/ml MIC infected ICR mouse at 2 g, sc administered 2 hrs post infection every 8 hrs", "type": "functional"}, "[26]": {"tested_on": "Homo sapiens", "experiment": "fCmax in human at 2 g, iv administered as 4 hrs infusion every 8 hrs", "type": "ADME, organism-based", "details": "in vivo"}, "[27]": {"tested_on": "Mus musculus", "experiment": "fCmax in ICR mouse at 1 g, sc administered 2 hrs post infection every 8 hrs", "type": "ADME, organism-based", "details": "in vivo"}, "[28]": {"experiment": "fT>MIC in Pseudomonas aeruginosa selected at 4 ug/ml MIC infected ICR mouse at 1 g, sc administered 2 hrs post infection every 8 hrs", "type": "functional"}, "[29]": {"experiment": "fT>MIC in Pseudomonas aeruginosa selected at 16 ug/ml MIC infected ICR mouse at 2 g, sc administered 2 hrs post infection every 8 hrs", "type": "functional"}, "[30]": {"tested_on": "Pseudomonas aeruginosa", "experiment": "Antimicrobial activity against Pseudomonas aeruginosa isolate 1095 by broth microdilution method", "type": "functional"}, "[31]": {"experiment": "fT>MIC in Pseudomonas aeruginosa selected at 4 ug/ml MIC infected human at 1 g, iv administered as 4 hrs infusion every 8 hrs", "type": "functional"}, "[32]": {"experiment": "fT>MIC in Pseudomonas aeruginosa selected at 16 ug/ml MIC infected ICR mouse at 1 g, sc administered 2 hrs post infection every 8 hrs", "type": "functional"}, "[33]": {"tested_on": "Pseudomonas aeruginosa", "experiment": "Antimicrobial activity against Pseudomonas aeruginosa isolate 821 by broth microdilution method", "type": "functional"}, "[34]": {"experiment": "fT>MIC in Pseudomonas aeruginosa selected at 8 ug/ml MIC infected human at 1 g, iv administered as 4 hrs infusion every 8 hrs", "type": "functional"}, "[35]": {"tested_on": "Pseudomonas aeruginosa", "experiment": "Antimicrobial activity against Pseudomonas aeruginosa isolate 944 by broth microdilution method", "type": "functional"}, "[36]": {"experiment": "fT>MIC in Pseudomonas aeruginosa selected at 16 ug/ml MIC infected human at 2 g, iv administered as 4 hrs infusion every 8 hrs", "type": "functional"}, "[37]": {"tested_on": "Pseudomonas aeruginosa", "experiment": "Antimicrobial activity against Pseudomonas aeruginosa selected at MIC […] to […] ug/ml infected ICR mouse assessed as reduction in bacterial load at 2g, sc administered 2 hrs post infection every 8 hrs", "type": "functional"}, "[38]": {"experiment": "fT>MIC in Pseudomonas aeruginosa selected at 32 ug/ml MIC infected ICR mouse at 1 g, sc administered 2 hrs post infection every 8 hrs", "type": "functional"}, "[39]": {"tested_on": "Mus musculus", "experiment": "fCmax in ICR mouse at 2 g, sc administered 2 hrs post infection every 8 hrs", "type": "ADME, organism-based", "details": "in vivo"}, "[40]": {"tested_on": "Pseudomonas aeruginosa", "experiment": "Antimicrobial activity against Pseudomonas aeruginosa isolate 1093 by broth microdilution method", "type": "functional"}, "[41]": {"experiment": "fT>MIC in Pseudomonas aeruginosa selected at 4 ug/ml MIC infected ICR mouse at 2 g, sc administered 2 hrs post infection every 8 hrs", "type": "functional"}, "[42]": {"tested_on": "Pseudomonas aeruginosa", "experiment": "Antimicrobial activity against Pseudomonas aeruginosa selected at MIC […] to […] ug/ml infected ICR mouse assessed as reduction in bacterial load at 1g, sc administered 2 hrs post infection every 8 hrs", "type": "functional"}, "[43]": {"experiment": "fT>MIC in Pseudomonas aeruginosa selected at 2 ug/ml MIC infected human at 2 g, iv administered as 4 hrs infusion every 8 hrs", "type": "functional"}, "[44]": {"tested_on": "Pseudomonas aeruginosa", "experiment": "Antimicrobial activity against Pseudomonas aeruginosa isolate 878 by broth microdilution method", "type": "functional"}, "[45]": {"experiment": "fT>MIC in Pseudomonas aeruginosa selected at 8 ug/ml MIC infected ICR mouse at 2 g, sc administered 2 hrs post infection every 8 hrs", "type": "functional"}, "[46]": {"tested_on": "Pseudomonas aeruginosa", "experiment": "Antimicrobial activity against Pseudomonas aeruginosa isolate 968 by broth microdilution method", "type": "functional"}, "[47]": {"tested_on": "Pseudomonas aeruginosa", "experiment": "Antimicrobial activity against Pseudomonas aeruginosa isolate 1060 by broth microdilution method", "type": "functional"}, "[48]": {"tested_on": "Pseudomonas aeruginosa", "experiment": "Antimicrobial activity against Pseudomonas aeruginosa isolate 896 by broth microdilution method", "type": "functional"}}}
{"compound": "C[C@@H](O)[C@H]1C(=O)N2C(C(=O)O)=C(S[C@@H]3CN[C@H](CNS(N)(=O)=O)C3)[C@H](C)[C@H]12", "note": "[DORIPENEM]", "values": [{"measurement": "fAUC", "setting": "[1]", "result": 68600, "unit": "ng·h/mL"}, {"measurement": "fAUC", "setting": "[2]", "result": 129300, "unit": "ng·h/mL"}, {"measurement": "fT>MIC", "setting": "[3]", "result": 80, "unit": "%"}, {"measurement": "fT>MIC", "setting": "[4]", "result": 82.5, "unit": "%"}, {"measurement": "MIC", "setting": "[5]", "result": 32, "unit": "µg/mL"}, {"measurement": "fAUC", "setting": "[6]", "result": 137100, "unit": "ng·h/mL"}, {"measurement": "fT>MIC", "setting": "[7]", "result": 95, "unit": "%"}, {"measurement": "MIC", "setting": "[8]", "result": 2, "unit": "µg/mL"}, {"measurement": "MIC", "setting": "[9]", "result": 8, "unit": "µg/mL"}, {"measurement": "fCmax", "setting": "[10]", "result": 15.6, "unit": "µg/mL"}, {"measurement": "fT>MIC", "setting": "[11]", "result": 65, "unit": "%"}, {"measurement": "fAUC", "setting": "[12]", "result": 64700, "unit": "ng·h/mL"}, {"measurement": "fT>MIC", "setting": "[13]", "result": 0, "unit": "%"}, {"measurement": "MIC", "setting": "[14]", "result": 8, "unit": "µg/mL"}, {"measurement": "MIC", "setting": "[15]", "result": 16, "unit": "µg/mL"}, {"measurement": "MIC", "setting": "[16]", "result": 4, "unit": "µg/mL"}, {"measurement": "fT>MIC", "setting": "[17]", "result": 0, "unit": "%"}, {"measurement": "fT>MIC", "setting": "[18]", "result": 52.5, "unit": "%"}, {"measurement": "MIC", "setting": "[19]", "result": 16, "unit": "µg/mL"}, {"measurement": "fT>MIC", "setting": "[20]", "result": 0, "unit": "%"}, {"measurement": "MIC", "setting": "[21]", "result": 8, "unit": "µg/mL"}, {"measurement": "MIC", "setting": "[22]", "result": 16, "unit": "µg/mL"}, {"measurement": "MIC", "setting": "[23]", "result": 16, "unit": "µg/mL"}, {"measurement": "fT>MIC", "setting": "[24]", "result": 80, "unit": "%"}, {"measurement": "fT>MIC", "setting": "[25]", "result": 0, "unit": "%"}, {"measurement": "fCmax", "setting": "[26]", "result": 31.2, "unit": "µg/mL"}, {"measurement": "fCmax", "setting": "[27]", "result": 15.9, "unit": "µg/mL"}, {"measurement": "fT>MIC", "setting": "[28]", "result": 70, "unit": "%"}, {"measurement": "fT>MIC", "setting": "[29]", "result": 52.5, "unit": "%"}, {"measurement": "MIC", "setting": "[30]", "result": 4, "unit": "µg/mL"}, {"measurement": "fT>MIC", "setting": "[31]", "result": 65, "unit": "%"}, {"measurement": "fT>MIC", "setting": "[32]", "result": 0, "unit": "%"}, {"measurement": "MIC", "setting": "[33]", "result": 32, "unit": "µg/mL"}, {"measurement": "fT>MIC", "setting": "[34]", "result": 50, "unit": "%"}, {"measurement": "MIC", "setting": "[35]", "result": 4, "unit": "µg/mL"}, {"measurement": "fT>MIC", "setting": "[36]", "result": 50, "unit": "%"}, {"measurement": "log10cfu", "setting": "[37]", "result": ">=2"}, {"measurement": "fT>MIC", "setting": "[38]", "result": 0, "unit": "%"}, {"measurement": "fCmax", "setting": "[39]", "result": 31.9, "unit": "µg/mL"}, {"measurement": "MIC", "setting": "[40]", "result": 32, "unit": "µg/mL"}, {"measurement": "fT>MIC", "setting": "[41]", "result": 82.5, "unit": "%"}, {"measurement": "log10cfu", "setting": "[42]", "result": ">=2"}, {"measurement": "fT>MIC", "setting": "[43]", "result": 95, "unit": "%"}, {"measurement": "MIC", "setting": "[44]", "result": 8, "unit": "µg/mL"}, {"measurement": "fT>MIC", "setting": "[45]", "result": 70, "unit": "%"}, {"measurement": "MIC", "setting": "[46]", "result": 16, "unit": "µg/mL"}, {"measurement": "MIC", "setting": "[47]", "result": 4, "unit": "µg/mL"}, {"measurement": "MIC", "setting": "[48]", "result": 8, "unit": "µg/mL"}]}
